Data from patent US20260306496A1, “CDK2 INHIBITOR PYRAZOLOPYRIMIDINE COMPOUNDS” (ALEKSIA THERAPEUTICS, INC., priority 2023, published 2026).
Where a name gives a salt, the structure may show the parent alone.

biological target: CDK2/CCNE1 (Homo sapiens, UniProt P24941); experiment: CDK2 homogeneous time-resolved fluorescence (HTRF) assay; format: biochemical; conditions: 3 nM CDK2/CCNE1, 1 mM ATP, 50 nM ULight-eIF4E-binding protein 1 (Thr37/46) peptide, 60 min at 23° C.; read-out: CDK2/CCNE IC50 <25 nM
Procedure: A CDK homogeneous time-resolved fluorescence (HTRF) assay was used to assess the potency of the compounds described herein.
To an untreated 384-well microtiter plate (ProxiPlate) was added 100 nL 100× test compound in DMSO and 5 μL 2×CDK enzyme in assay buffer (50 mM HEPES, 1 mM EGTA, 10 mM MgCl2, 0.01% Tween 20, 2 mM DTT). The plate was centrifuged at 800 RPM for 1 min then incubated for 20 min at 23° C. 2.5 μL per well of 4×ATP and 2.5 μL 4×ULight™-eIF4E-binding protein 1 (Thr37/46) Peptide) substrate were added to all wells. After addition, the plates were centrifuged at 800 RPM for 1 min. The plates were incubated at 23° C. for 60 min. 5 μL per well 3×EDTA solution were added to each well to stop the reaction. 2.5 μL 7×LANCE Ultra Europium-anti-phospho-eTF4E-binding protein 1 (Thr37/46 antibody) were added to each well and the plate was centrifuged for 1 min at 800 RPM. The plate was incubated for 60 min at 23° C. Fluorescence was read at 340 nm excitation and 665 nm emission on an EnVision 2105 fluorescence reader. The final concentrations of reagents in the activity assay were 3 nM CDK2/CCNE1, 1 mM ATP, 50 nM ULight™-eIF4E-binding protein 1 (Thr37/46) Peptide substrate, 1% DMSO, 10 mM EDTA, and 2 nM LANCE Ultra Europium-anti-phospho-eTF4E-binding protein 1 (Thr37/46).
Dose-response titrations were conducted by using an 11-point, three-fold serial dilution scheme typically starting at 1 μM. Signals were reported as fluorescence units at 665 nm or the ratio of fluorescence units at 665 nm/fluorescence units at 615 nm. Signals are referred to below as “Lance signals”.
Using this assay, the IC50 values of example compounds were determined.

Row | IC50 [nM] | Structure (SMILES)
1 | < 25 | CS(=O)(=O)c1ccc(Nc2ncc3cnn(C4CCC(C#N)CC4)c3n2)cc1 (single isomer, unassigned) [Compound 32, 4-(6-((4-(methylsulfonyl)phenyl)amino)-1H-pyrazolo[3,4-d]pyrimidin-1-yl)cyclohexane-1-carbonitrile]
2 | < 25 | C=CS(=O)(=O)N1CCC(Nc2ncc3cnn(CC4CCCCC4)c3n2)CC1 [Compound 1, 1-(cyclohexylmethyl)-N-(1-(vinylsulfonyl)piperidin-4-yl)-1H-pyrazolo[3,4-d]pyrimidin-6-amine]
3 | < 25 | CS(=O)(=O)N1CCC(Nc2ncc3cnn(CC4CCCCC4)c3n2)CC1 [Compound 2, 1-(cyclohexylmethyl)-N-(1-(methylsulfonyl)piperidin-4-yl)-1H-pyrazolo[3,4-d]pyrimidin-6-amine]

same assay, conditions: 3 nM CDK2/CCNE1, 1 mM ATP, 50 nM ULight-eIF4E-binding protein 1 (Thr37/46) peptide, 60 min at 23° C.; read-out: CDK2/CCNE IC50 >150 nM

Row | IC50 [nM] | Structure (SMILES)
4 | > 150 | CC(c1cccnn1)n1ncc2cnc(Nc3ccc(S(C)(=O)=O)cc3)nc21 (single isomer, unassigned) [Compound 77, N-(4-(methylsulfonyl)phenyl)-1-(1-(pyridazin-3-yl)ethyl)-1H-pyrazolo[3,4-d]pyrimidin-6-amine]
5 | > 150 | CS(=O)(=O)c1ccc(Nc2ncc3cnn(CC4CCC(N5CCC5)CC4)c3n2)cc1 (single isomer, unassigned; stereoisomer a) [Compound 60, 1-((4-(azetidin-1-yl)cyclohexyl)methyl)-N-(4-(methylsulfonyl)phenyl)-1H-pyrazolo[3,4-d]pyrimidin-6-amine (stereoisomer A)]
6 | > 150 | CS(=O)(=O)c1ccc(Nc2ncc3cnn(CC4CCC(N5CC(O)C5)CC4)c3n2)cc1 (single isomer, unassigned; stereoisomer a) [Compound 64, 1-(4-((6-((4-(methylsulfonyl)phenyl)amino)-1H-pyrazolo[3,4-d]pyrimidin-1-yl)methyl)cyclohexyl)azetidin-3-ol (stereoisomer A)]
7 | > 150 | CS(=O)(=O)c1ccc(Nc2ncc3cnn(CC4CCC(N5CC(C#N)C5)CC4)c3n2)cc1 (single isomer, unassigned; stereoisomer a) [Compound 65, 1-(4-((6-((4-(methylsulfonyl)phenyl)amino)-1H-pyrazolo[3,4-d]pyrimidin-1-yl)methyl)cyclohexyl)azetidine-3-carbonitrile (stereoisomer A)]
8 | > 150 | CS(=O)(=O)c1ccc(Nc2ncc3cnn(CC4CCC(N5CC[C@H](C#N)C5)CC4)c3n2)cc1 (single isomer, unassigned; stereoisomer a) [Compound 69]
9 | > 150 | CS(=O)(=O)c1ccc(Nc2ncc3cnn(CC4CCC(N5CC[C@@H](C#N)C5)CC4)c3n2)cc1 (single isomer, unassigned; stereoisomer a) [Compound 71]
10 | > 150 | CS(=O)(=O)c1ccc(Nc2ncc3cnn(CC4CCC(N5CC[C@@H](O)C5)CC4)c3n2)cc1 (single isomer, unassigned; stereoisomer a) [Compound 73]
11 | > 150 | CS(=O)(=O)c1ccc(Nc2ncc3cnn(CC4CCC(N5CC[C@H](O)C5)CC4)c3n2)cc1 (single isomer, unassigned; stereoisomer a) [Compound 74]
12 | > 150 | CS(=O)(=O)c1ccc(Nc2ncc3cnn(CC4CCC(N5CCCC5)CC4)c3n2)cc1 (single isomer, unassigned; stereoisomer b) [Compound 59, N-(4-(methylsulfonyl)phenyl)-1-((4-(pyrrolidin-1-yl)cyclohexyl)methyl)-1H-pyrazolo[3,4-d]pyrimidin-6-amine (stereoisomer B)]

More lines, now with the values behind:

Row | Structure (SMILES) | IC50 [nM]
13 | CS(=O)(=O)c1ccc(Nc2ncc3cnn(Cc4ccccc4)c3n2)cc1 [Compound 4, 1-benzyl-N-(4-(methylsulfonyl)phenyl)-1H-pyrazolo[3,4-d]pyrimidin-6-amine] | > 150
14 | CS(=O)(=O)c1ccc(Nc2ncc3cnn(Cc4cccnc4)c3n2)cc1 [Compound 5, N-(4-(methylsulfonyl)phenyl)-1-(pyridine-3-ylmethyl)-1H-pyrazolo[3,4-d]pyrimidin-6-amine] | > 150
15 | CS(=O)(=O)c1ccc(Nc2ncc3cnn(CC4CCNCC4)c3n2)cc1 [Compound 7, N-(4-(methylsulfonyl)phenyl)-1-(piperidin-4-ylmethyl)-1H-pyrazolo[3,4-d]pyrimidin-6-amine hydrochloride] | > 150
16 | C=CS(=O)(=O)c1ccc(Nc2ncc3cn[nH]c3n2)cc1 [Compound 9, N-(4-(vinylsulfonyl)phenyl)-1H-pyrazolo[3,4-d]pyrimidin-6-amine] | > 150
17 | C=CS(=O)(=O)c1ccc(Nc2ncc3cnn(C)c3n2)cc1 [Compound 10, 1-methyl-N-(4-(vinylsulfonyl)phenyl)-1H-pyrazolo[3,4-d]pyrimidin-6-amine] | > 150
18 | CN1CCN(CCn2ncc3cnc(Nc4ccc(S(C)(=O)=O)cc4)nc32)CC1 [Compound 15, 1-(2-(4-methylpiperazin-1-yl)ethyl)-N-(4-(methylsulfonyl)phenyl)-1H-pyrazolo[3,4-d]pyrimidin-6-amine] | > 150
19 | CS(=O)(=O)c1ccc(Nc2ncc3cnn(C[C@H]4CC[C@@H](C(=O)O)CC4)c3n2)cc1 [Compound 16, (1s,4s)-4-((6-((4-(methylsulfonyl)phenyl)amino)-1H-pyrazolo[3,4-d]pyrimidin-1-yl)methyl)cyclohexane-1-carboxylic acid] | > 150

same assay, conditions: column 25-150 nM; 3 nM CDK2/CCNE1, 1 mM ATP, 50 nM ULight-eIF4E-binding protein 1 (Thr37/46) peptide, 60 min at 23° C.; read-out: CDK2/CCNE IC50 25-150 nM

Row | IC50 [nM] | Structure (SMILES)
20 | 25 to 150 | CS(=O)(=O)c1ccc(Nc2ncc3cnn([C@H]4CC[C@H](O)CC4)c3n2)cc1 (single isomer, unassigned) [Compound 54]
21 | 25 to 150 | CS(=O)(=O)c1ccc(Nc2ncc3cnn(-c4ccc(C#N)cc4)c3n2)cc1 (single isomer, unassigned) [Compound 68, 4-(6-((4-(methylsulfonyl)phenyl)amino)-1H-pyrazolo[3,4-d]pyrimidin-1-yl)benzonitrile]
22 | 25 to 150 | CS(=O)(=O)c1ccc(Nc2ncc3cn(-c4ccc(C#N)cc4)nc3n2)cc1 (single isomer, unassigned) [Compound 83, 4-(6-((4-(methylsulfonyl)phenyl)amino)-2H-pyrazolo[3,4-d]pyrimidin-2-yl)benzonitrile]
23 | 25 to 150 | CS(=O)(=O)c1ccc(Nc2ncc3cnn(CC4CCC(N5CCCC5)CC4)c3n2)cc1 (single isomer, unassigned; stereoisomer a) [Compound 58, N-(4-(methylsulfonyl)phenyl)-1-((4-(pyrrolidin-1-yl)cyclohexyl)methyl)-1H-pyrazolo[3,4-d]pyrimidin-6-amine (stereoisomer A)]

The remaining lines, values behind:

Row | Structure (SMILES) | IC50 [nM]
24 | CS(=O)(=O)c1ccc(Nc2ncc3cnn(CC4CCC(C#N)CC4)c3n2)cc1 (single isomer, unassigned) [Compound 28, 4-((6-((4-(methylsulfonyl)phenyl)amino)-1H-pyrazolo[3,4-d]pyrimidin-1-yl)methyl)cyclohexane-1-carbonitrile] | 25 to 150
25 | CS(=O)(=O)c1ccc(Nc2ncc3cnn(C4CCOCC4)c3n2)cc1 [Compound 3, N-(4-(methylsulfonyl)phenyl)-1-(tetrahydro-2H-pyran-4-yl)-1H-pyrazolo[3,4-d]pyrimidin-6-amine] | 25 to 150
26 | CS(=O)(=O)c1ccc(Nc2ncc3cnn(C[C@H]4CC[C@@H](N)CC4)c3n2)cc1 [Compound 6, 1-(((1S,4S)-4-aminocyclohexyl)methyl)-N-(4-(methylsulfonyl)phenyl)-1H-pyrazolo[3,4-d]pyrimidin-6-amine] | 25 to 150
27 | C=CS(=O)(=O)c1ccc(Nc2ncc3cnn(CC4CCCCC4)c3n2)cc1 [Compound 8, 1-(cyclohexylmethyl)-N-(4-(vinylsulfonyl)phenyl)-1H-pyrazolo[3,4-d]pyrimidin-6-amine] | 25 to 150
28 | CS(=O)(=O)c1ccc(Nc2ncc3cnn(C[C@H]4CC[C@H](CO)CC4)c3n2)cc1 [Compound 11, ((1r,4r)-4-((6-((4-(methylsulfonyl)phenyl)amino)-1H-pyrazolo[3,4-d]pyrimidin-1-yl)methyl)cyclohexyl)methanol] | 25 to 150
29 | CS(=O)(=O)c1ccc(Nc2ncc3cnn(CC4CCCCC4)c3n2)cc1 [Compound 12, 1-(cyclohexylmethyl)-N-(4-(methylsulfonyl)phenyl)-1H-pyrazolo[3,4-d]pyrimidin-6-amine] | 25 to 150
30 | CS(=O)(=O)c1ccc(Nc2ncc3cnn(CC4CCCC4)c3n2)cc1 [Compound 13, 1-(cyclopentylmethyl)-N-(4-(methylsulfonyl)phenyl)-1H-pyrazolo[3,4-d]pyrimidin-6-amine] | 25 to 150
31 | CS(=O)(=O)c1ccc(Nc2ncc3cnn(C4CCNCC4)c3n2)cc1 [Compound 14, N-(4-(methylsulfonyl)phenyl)-1-(piperidin-4-yl)-1H-pyrazolo[3,4-d]pyrimidin-6-amine] | 25 to 150
